The values that follow come from patent publication US20240150301A1, “METHODS OF MODULATING ANDROGEN RECEPTOR CONDENSATES” (ETERN BIOPHARMA (SHANGHAI) CO., LTD., priority 2021, published 2024).

Entries after “also recorded” stand apart in the source; their conditions may differ. Bounds are passed on as bounds.

In experiment [1] the test system is AF-1 recombinant protein (human AR-NTD). The experiment is described as follows: AF-1 STD NMR binding assay. The note with it: 25 μM AF-1, 250 μM compound. Here is the method: Binding of the exemplary compounds to human AR-NTD was performed using STD […] Nuclear Magnetic Resonance (STD NMR) analysis with purified AF-1 recombinant protein.
Binding of the exemplary compounds to human AR-NTD was performed using STD […] Nuclear Magnetic Resonance (STD NMR) analysis with purified Tau-5AF-1 recombinant protein. All NMR spectroscopy experiments were performed on a Bruker Avance III 600 MHz spectrometer. NMR samples contain 25 μM AF-1 and 250 μM compound, and were diluted by PBS (pH 7.4, 60% D20) buffer to 500 μL. For the STD experiments, the standard Bruker stddiffgp19.3 pulse sequence was used with a saturation time of 2 s and a spectral width of 16 ppm with 128 scans. The on-resonance frequency was set to −0.4 ppm, while the off-resonance frequency was set to 33 ppm. Appropriate blank experiments, in the absence of protein or compound, were performed to test the lack of direct saturation to the compound protons.

For another experiment, the target named is T1, AR (Homo sapiens, UniProt P10275).
T1 sequence (P10275 1-920 T878A): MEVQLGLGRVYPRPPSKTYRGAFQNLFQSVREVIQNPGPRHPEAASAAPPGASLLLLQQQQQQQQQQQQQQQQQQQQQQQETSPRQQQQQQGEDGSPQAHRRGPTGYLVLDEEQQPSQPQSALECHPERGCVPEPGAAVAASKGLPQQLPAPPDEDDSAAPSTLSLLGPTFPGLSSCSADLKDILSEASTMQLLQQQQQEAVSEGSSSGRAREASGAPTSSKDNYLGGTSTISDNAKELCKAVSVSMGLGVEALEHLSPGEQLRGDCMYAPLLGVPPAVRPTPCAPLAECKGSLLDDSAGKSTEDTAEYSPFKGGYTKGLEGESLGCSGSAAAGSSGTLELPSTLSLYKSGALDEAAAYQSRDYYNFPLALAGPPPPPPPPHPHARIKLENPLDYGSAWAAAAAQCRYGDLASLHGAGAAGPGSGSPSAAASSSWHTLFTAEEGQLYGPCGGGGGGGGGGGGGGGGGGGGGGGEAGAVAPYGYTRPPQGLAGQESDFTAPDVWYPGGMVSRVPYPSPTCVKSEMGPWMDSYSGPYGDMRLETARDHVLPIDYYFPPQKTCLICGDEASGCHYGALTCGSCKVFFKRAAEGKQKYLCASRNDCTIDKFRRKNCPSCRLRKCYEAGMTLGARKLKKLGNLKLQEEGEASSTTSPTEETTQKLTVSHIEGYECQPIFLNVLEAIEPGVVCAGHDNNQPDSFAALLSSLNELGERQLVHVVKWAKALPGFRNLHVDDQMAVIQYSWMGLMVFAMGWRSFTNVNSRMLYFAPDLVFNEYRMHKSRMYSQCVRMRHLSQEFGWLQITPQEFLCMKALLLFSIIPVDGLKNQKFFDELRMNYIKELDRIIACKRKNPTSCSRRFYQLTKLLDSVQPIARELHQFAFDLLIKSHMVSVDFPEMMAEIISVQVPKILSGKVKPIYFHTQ
The experiment is described as follows: ARE-luciferase reporter assay in LNCaP cells (DHT-induced). It counts as cell-based. The note with it: 1 nM DHT, 24 h, normalized to cell viability, read-out: LNCaP ARE-luc IC50. Here is the method: (§1) The ARE-luciferase reporter plasmid contains functional AREs (androgen response elements) to which AR binds in response to androgen to induce luciferase activity. LNCaP (Cobioer) cells were transiently transfected with the ARE-luciferase reporter in charcoal stripped FBS/phenol red-free RPMI medium prior to treatment for 24 hours. Then DMSO or test compounds with serial diluted concentrations were added one hour prior to the addition of DHT(1 nM). After 24 h of incubation with DHT, cells were lysed and luciferase activity was assayed using the ONE-Glo™ Luciferase Assay System (Promega) and measured using EnVision Multimode Plate Reader, according to manufacturer's instructions. Values were normalized to cell viability determined by CellTiter-Glo® Luminescent Cell Viability Assay Kit (Promega). […] GraphPad Prism graphing software was used to calculate IC50 values.
(Reporter assays use an easily measured gene product as a stand-in for the process of interest.)

For another experiment, the system named is LNCaP cells. The experiment is described as follows: Cell proliferation assay (CellTiter-Glo), LNCaP. The class given is cell-based. The note with it: Homo sapiens, 96 h, 0.2 nM DHT, 4 days, read-out: LNCaP IC50 AR-positive (cell proliferation). Here is the method: (§2) To evaluate the effect of exemplary compounds on proliferation of AR/AR-V7-dependent prostate cancer cells, cell viability assay was performed in LNCaP (AR-positive), 22Rv1 (AR-positive; AR-V7 positive), VCaP (AR-positive; AR-V7 positive), and DU145 (AR-negative) cells, respectively.
(§3) LNCaP cells were seeded in charcoal stripped FBS/phenol red-free RPMI medium in 96-well plates for 24 h before pretreating for 1 h with test compounds prior to addition of 0.2 nM DHT for 4 days. 22Rv1 or VCaP cells were cultured in charcoal stripped FBS/phenol red-free RPMI medium for 24 h before addition of test compounds for 4 days. DU145 cells were seeded in complete medium for 24 h before addition of test compounds for 4 days. Cell proliferation was measured with CellTiter-Glo® Luminescent Cell Viability Assay (Promega). In LNCaP cells, DHT-dependent cell growth is calculated by measuring the difference between vehicle control (DMSO) cells treated with or without 0.2 nM DHT. The IC50 values were determined using the four parameter fit via GraphPad Prism graphing software.
In general terms: In ATP-based viability assays light output follows the ATP content of the culture.

For another experiment, the system named is 22Rv1 cells. The experiment is described as follows: Cell proliferation assay (CellTiter-Glo), 22Rv1. It counts as cell-based. The note with it: Homo sapiens, 22Rv1, 96 h; 4 days; read-out: 22Rv1 IC50 AR-positive; AR-V7 positive (cell proliferation). Here is the method: as §2, §3
A further experiment deals with VCaP cells. The experiment is described as follows: Cell proliferation assay (CellTiter-Glo), VCaP. It counts as cell-based. The note with it: Homo sapiens, 96 h, 4 days, read-out: VCaP IC50 AR-positive, AR-V7 positive (cell proliferation). The protocol: as §2, §3
For the next experiment, the system named is DU145 cells. The experiment is described as follows: Cell proliferation assay (CellTiter-Glo), DU145. It counts as cell-based. The note with it: Homo sapiens, DU-145, 96 h; 4 days; read-out: DU145 IC50 AR-negative (cell proliferation). Here is the method:
as §2, §3

Experiment [2] relates to AR or AR-V7 downstream target genes. The experiment is described as follows: AR/AR-V7 target gene qPCR assay in 22Rv1 cells. It counts as cell-based, human. The note with it: 22Rv1, 48 h, RT-qPCR. The protocol:
To evaluate the effect of exemplary compounds on mRNA expression of AR or AR-V7 downstream target genes, real-time quantitative PCR measurements were performed in prostate cancer cell line 22Rv1 expressing both AR and AR-V7.
22Rv1 cells were cultured in charcoal stripped FBS/phenol red-free RPMI medium for 24 h, and then treated with DMSO or test compounds for additional 48 h prior to RT-qPCR. Briefly, RNA was isolated from cells using RNeasy Mini Kit (Qiagen) following the manufacturer's protocol. RNA was reverse transcribed and subjected to qPCR using PowerUp™ SYBR™ Green Master Mix (Applied Biosystems). The relative quantity of the target genes was calculated using the ΔΔCt method by comparing Ct of the target genes and mean Ct of the housekeeping gene GAPDH.

Experiment [3] has as its target T2, AR V7 (Homo sapiens, UniProt P10275).
T2 sequence (P10275 1-644 isoform P10275-3): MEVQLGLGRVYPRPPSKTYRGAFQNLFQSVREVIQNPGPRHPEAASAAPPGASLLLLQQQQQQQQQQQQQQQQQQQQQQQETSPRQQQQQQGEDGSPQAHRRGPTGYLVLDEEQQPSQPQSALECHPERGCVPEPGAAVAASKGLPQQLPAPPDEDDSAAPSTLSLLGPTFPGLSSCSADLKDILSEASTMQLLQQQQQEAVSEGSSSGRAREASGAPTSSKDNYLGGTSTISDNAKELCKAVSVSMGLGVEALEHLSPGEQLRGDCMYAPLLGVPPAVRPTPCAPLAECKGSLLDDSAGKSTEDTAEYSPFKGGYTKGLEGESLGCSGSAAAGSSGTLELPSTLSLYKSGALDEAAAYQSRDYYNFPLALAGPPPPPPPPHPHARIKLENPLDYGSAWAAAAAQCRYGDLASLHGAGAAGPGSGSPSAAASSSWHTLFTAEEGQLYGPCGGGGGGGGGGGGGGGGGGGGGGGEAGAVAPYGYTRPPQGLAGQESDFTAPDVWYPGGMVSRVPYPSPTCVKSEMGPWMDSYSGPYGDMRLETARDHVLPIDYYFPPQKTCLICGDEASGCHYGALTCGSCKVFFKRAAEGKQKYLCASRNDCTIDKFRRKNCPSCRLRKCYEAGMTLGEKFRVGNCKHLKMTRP
The experiment is described as follows: ARE-luciferase reporter assay in HEK293T cells cotransfected with AR-V7. The class given is cell-based. Also on record: host or cells: HEK293T. The note with it: HEK293T cotransfected with AR-V7, hormone-starved, 24 h; read-out: HEK293T(V7) ARE-luc IC50. Here is the method:
as §1
(§4) To evaluate the transcriptional activity of AR-V7, HEK293T(Cobioer) cells were transiently cotransfected with an expression vector for AR-V7 and the ARE-luciferase reporter in hormone-starved conditions. For 22Rv1(Cobioer) prostate cancer cell line, which expresses endogenous AR-V7, ARE-luciferase reporter was transiently transfected in hormone-starved conditions. 24 h after transfection, DMSO or test compounds with serial diluted concentrations were added for additional 24 h incubation. Reporter activity was detected and normalized by cell viability as described above. Treatments were normalized to DMSO control activity, and IC50 values were further determined via GraphPad Prism graphing software.

Experiment [4] addresses T2, AR V7. The experiment is described as follows: ARE-luciferase reporter assay in 22Rv1 cells (endogenous AR-V7). The class given is cell-based. Also on record: 22Rv1(Cobioer) prostate cancer cell line, which expresses endogenous AR-V7; host or cells: 22Rv1. The note with it: 22Rv1, hormone-starved, 24 h; read-out: 22Rv1 ARE-luc IC50. Here is the method: as §1, §4

With `CC(C)(c1ccc(OCc2ccnc(N=S3(=O)CCNCC3)n2)cc1)c1cc(Cl)c(OCCO)c(C#N)c1` [Compound 62, 3-chloro-2-(2-hydroxyethoxy)-5-(2-(4-((2-((1-oxido-1λ^6-thiomorpholin-1-ylidene)amino)pyrimidin-4-yl)methoxy)phenyl)propan-2-yl)benzonitrile], the “binding to AF-1 (STD difference spectrum)” value in experiment [1] is given as “confirmed the binding; also recorded: binds to AF-1”.
Regarding `CC(C)(c1ccc(OCc2ccnc(N=S3(=O)CCCC3)n2)cc1)c1cc(Cl)c(OCCCl)c(C#N)c1` [Compound 2, 3-chloro-2-(2-chloroethoxy)-5-(2-(4-((2-((1-oxidotetrahydro-1λ^6-thiophen-1-ylidene)amino)pyrimidin-4-yl)methoxy)phenyl)propan-2-yl) benzonitrile], the IC50 at AR was 2.82 µM; in the experiment with LNCaP cells, 0.52 µM; with 22Rv1 cells, 2.75 µM; in the experiment on VCaP cells it was 8.81 µM; with DU145 cells, greater than 20 µM; on AR V7 [3], 2.3 µM. Further, the IC50 at AR V7 [4] was 4.4 µM. The “mRNA expression of target genes of either AR or AR-V7” value in [2] is “inhibited mRNA expression”.
